Test results: patent US20260263485A1, “AMINOSTEROL COMPOUNDS, AMINOSTEROL-CYCLODEXTRIN FORMULATIONS, AND METHODS OF USING THE SAME” (Enterin, Inc., priority 2022, published 2026)
Several values for one entry are separate records, joined by “and”; a condition that tells them apart may be missing. Equal values may be shown once. Read-outs that look alike come from different tables or passages of the source.

Experiment: Plasma pharmacokinetics of ENT-03S cyclodextrin formulation after subcutaneous injection
Assay type: in vivo, rat
Conditions: 20% beta-cyclodextrin formulation, male SD rats
Experimental: In this example, ENT-03S was formulated with unmodified beta-cyclodextrin at a concentration of 25 mg/ml ENT-03, and 20% beta-cyclodextrin, pH 7.5, buffered with phosphate.
Male Sprague-Dawley rats were administered the ENT-03-cyclodextrin formulation subcutaneous at a dose of 10 mg/kg. Blood samples were drawn from the tail vein at various times, the concentrations of ENT-03 determined, and PK parameters determined.

[1] = SC Dose 10 mg/kg, plasma, individual rats, 10 mg/kg

## C[C@H](CCC[C@H](C)C(=O)O)[C@H]1CCC2C3C(CC[C@@]21C)[C@@]1(C)CC[C@H](NCCCNCCCCNCCCN)C[C@@H]1C[C@H]3O (stereo partly drawn) [ENT-03S, (2S,6R)-6-((3S,5R,7R,10S,13R,17R)-3-((3-((4-((3-aminopropyl)amino)butyl)amino)propyl)amino)-7-hydroxy-10,13-dimethylhexadecahydro-1 H-cyclopenta[a]phenanthren-17-yl)-2-methylheptanoic acid]
10 mg/kg SC, 0.25 h, individual rats, 10 mg/kg
  Concentration (ng/ml) Rat 1-3: 22000 ng/mL and 20800 ng/mL
10 mg/kg SC, 0.5 h, individual rats, 10 mg/kg
  Concentration (ng/ml) Rat 1-3: 27100 ng/mL and 30200 ng/mL
10 mg/kg SC, 1 h, individual rats, 10 mg/kg
  Concentration (ng/ml) Rat 1-3: 31700 ng/mL and 33000 ng/mL
10 mg/kg SC, 2 h, individual rats, 10 mg/kg
  Concentration (ng/ml) Rat 1-3: 32700 ng/mL and 33300 ng/mL
10 mg/kg SC, 4 h, individual rats, 10 mg/kg
  Concentration (ng/ml) Rat 1-3: 29600 ng/mL and 25400 ng/mL
10 mg/kg SC, 8 h, individual rats, 10 mg/kg
  Concentration (ng/ml) Rat 1-3: 25000 ng/mL and 23000 ng/mL
10 mg/kg SC, 24 h, individual rats, 10 mg/kg
  Concentration (ng/ml) Rat 1-3: 14100 ng/mL and 12600 ng/mL
10 mg/kg SC, 48 h, individual rats, 10 mg/kg
  Concentration (ng/ml) Rat 1-3: 7700 ng/mL and 5620 ng/mL
10 mg/kg SC, 72 h, individual rats, 10 mg/kg
  Concentration (ng/ml) Rat 1-3: 1850 ng/mL and 4200 ng/mL and 2440 ng/mL
[1]
  AUC_% Extrap_obs: 6.74% and 15.0% and 8.08%
  AUClast: 944.488 µg·h/mL and 811.185 µg·h/mL
  AUClast/D: 71600 kg·ng·h/mL/mg and 94400 kg·ng·h/mL/mg and 81100 kg·ng·h/mL/mg
  AUClnf: 1110.949 µg·h/mL and 882.526 µg·h/mL
  Cmax: 32700 ng/mL and 33300 ng/mL
  MRTlnf_obs: 24.3 h and 36.3 h and 27.2 h
  T1/2: 27.5 h and 20.3 h
SC Dose 10 mg/kg, plasma, mean
  AUC_% Extrap_obs Mean: 9.9%
  AUClast/D Mean: 82400 kg·ng·h/mL/mg
  MRTlnf_obs Mean: 29.3 h
Sprague-Dawley, rat, SC Dose 10 mg/kg, plasma, individual rats, read-out: Tmax
  Tmax: 2 h
male, Sprague-Dawley, rat, plasma, sc, 10 mg/kg, 10 mg/kg SC, 0.25 h, individual rats, read-out: Concentration (ng/ml) Rat 1-3
  concentration at 0.25 h: 23100 ng/mL
male, Sprague-Dawley, rat, plasma, sc, 10 mg/kg, 10 mg/kg SC, 0.25 h, mean, read-out: Concentration Mean
  concentration at 0.25 h: 22000 ng/mL
male, Sprague-Dawley, rat, plasma, sc, 10 mg/kg, 10 mg/kg SC, 0.5 h, individual rats, read-out: Concentration (ng/ml) Rat 1-3
  concentration at 0.5 h: 25700 ng/mL
male, Sprague-Dawley, rat, plasma, sc, 10 mg/kg, 10 mg/kg SC, 0.5 h, mean, read-out: Concentration Mean
  concentration at 0.5 h: 27700 ng/mL
male, Sprague-Dawley, rat, plasma, sc, 10 mg/kg, 10 mg/kg SC, 1 h, individual rats, read-out: Concentration (ng/ml) Rat 1-3
  concentration at 1 h: 30700 ng/mL
male, Sprague-Dawley, rat, plasma, sc, 10 mg/kg, 10 mg/kg SC, 1 h, mean, read-out: Concentration Mean
  concentration at 1 h: 31800 ng/mL
male, Sprague-Dawley, rat, plasma, sc, 10 mg/kg, 10 mg/kg SC, 2 h, individual rats, read-out: Concentration (ng/ml) Rat 1-3
  concentration at 2 h: 31300 ng/mL
male, Sprague-Dawley, rat, plasma, sc, 10 mg/kg, 10 mg/kg SC, 2 h, mean, read-out: Concentration Mean
  concentration at 2 h: 32400 ng/mL
male, Sprague-Dawley, rat, plasma, sc, 10 mg/kg, 10 mg/kg SC, 4 h, individual rats, read-out: Concentration (ng/ml) Rat 1-3
  concentration at 4 h: 25700 ng/mL
male, Sprague-Dawley, rat, plasma, sc, 10 mg/kg, 10 mg/kg SC, 4 h, mean, read-out: Concentration Mean
  concentration at 4 h: 26900 ng/mL
male, Sprague-Dawley, rat, plasma, sc, 10 mg/kg, 10 mg/kg SC, 8 h, individual rats, read-out: Concentration (ng/ml) Rat 1-3
  concentration at 8 h: 22700 ng/mL
male, Sprague-Dawley, rat, plasma, sc, 10 mg/kg, 10 mg/kg SC, 8 h, mean, read-out: Concentration Mean
  concentration at 8 h: 23600 ng/mL
male, Sprague-Dawley, rat, plasma, sc, 10 mg/kg, 10 mg/kg SC, 24 h, individual rats, read-out: Concentration (ng/ml) Rat 1-3
  concentration at 24 h: 10300 ng/mL
male, Sprague-Dawley, rat, plasma, sc, 10 mg/kg, 10 mg/kg SC, 24 h, mean, read-out: Concentration Mean
  concentration at 24 h: 12300 ng/mL
male, Sprague-Dawley, rat, plasma, sc, 10 mg/kg, 10 mg/kg SC, 48 h, individual rats, read-out: Concentration (ng/ml) Rat 1-3
  concentration at 48 h: 4080 ng/mL
male, Sprague-Dawley, rat, plasma, sc, 10 mg/kg, 10 mg/kg SC, 48 h, mean, read-out: Concentration Mean
  concentration at 48 h: 5770 ng/mL
male, Sprague-Dawley, rat, plasma, sc, 10 mg/kg, 10 mg/kg SC, 72 h, mean
  concentration at 72 h: 2830 ng/mL
male, Sprague-Dawley, rat, plasma, sc, 10 mg/kg, SC Dose 10 mg/kg, plasma, individual rats, read-out: AUClast
  AUC(0-t): 716 µg·h/mL
male, Sprague-Dawley, rat, plasma, sc, 10 mg/kg, SC Dose 10 mg/kg, plasma, individual rats, read-out: AUClnf
  AUC: 767 µg·h/mL
male, Sprague-Dawley, rat, plasma, sc, 10 mg/kg, SC Dose 10 mg/kg, plasma, individual rats, read-out: Cmax
  Cmax: 31300 ng/mL
male, Sprague-Dawley, rat, plasma, sc, 10 mg/kg, SC Dose 10 mg/kg, plasma, individual rats, read-out: T1/2 (converted)
  half-life: 19.4 h
